Assay results published in patent US20240246902A1, “PRODRUGS OF 6-DIAZO-5-OXO-L-NORLEUCINE” (THE JOHNS HOPKINS UNIVERSITY, priority 2021, published 2024).

How the values were obtained:
[1] = Metabolic stability in swine liver tissue homogenate; type: in vitro ADME; settings: prodrug 20 μM, 37° C.
Description: (§1) The representative Compounds of the Disclosure were screened for metabolic stability in swine jejunum/liver tissue homogenates, following our previously reported methods (Zimmermann et al., J. Med. Chem., 61(9):3918-29 (2018); Tenora et al., J. Med. Chem., 62(7):3524-38 (2019)). In brief, freshly collected tissues were homogenized by probe sonication in 9× volume of 0.1 M potassium phosphate buffer over ice. Post homogenization, prodrugs were spiked at a concentration of 20 μM (in triplicate) and incubated in an orbital shaker at 37° C. for 60 min. Final concentration of DMSO in the incubations was 0.2% v/v. At each time point (0, 30, 60 min), 100 μL of sample was precipitated with 300 μL of methanol containing internal standard (IS; losartan: 0.5 μM). […] After centrifugation, 50 μL of supernatant was diluted with 50 μL of water, vortexed and submitted for analysis. Prodrug disappearance over time was measured using liquid chromatography tandem mass spectrometry (LC-MS/MS).
(§2) The processed supernatants were analyzed on a Thermo Scientific Vanquish UPLC system (equipped with Vanquish autosampler, pumps, and column compartment) hyphenated to TSQ Altis mass spectrometer (Thermo Fisher Scientific Inc., Waltham MA). […] The autosampler was operated at 4° C. […] Peak area ratios obtained from peak area counts of analyte and internal standard were used to measure the disappearance of prodrugs.

[2] = Efflux
[3] = Metabolic stability in swine jejunum (gut) tissue homogenate; type: in vitro ADME; settings: prodrug 20 μM, 37° C.
Description: as §1, §2

CC(C)OC(=O)[C@H](CCC(=O)C=[N+]=[N-])NC(=O)C(Cl)Cl [Compound 5e, Isopropyl (S)-6-diazo-2-(2,2-dichloroacetamido)-5-oxohexanoate]
Liver stability (% remaining at 60 min) [1]: 0 ± 0%

CCOC(=O)[C@H](CCC(=O)C=[N+]=[N-])NC(C)=O [Compound 5k, Ethyl (S)-2-acetamido-6-diazo-5-oxohexanoate]
Liver stability (% remaining at 60 min) [1]: 83 ± 2%
Efflux [2]: 1

C=CCOC(=O)[C@H](CCC(=O)C=[N+]=[N-])NC(C)=O [Compound 5l, Allyl (S)-2-acetamido-6-diazo-5-oxohexanoate]
Liver stability (% remaining at 60 min) [1]: 12 ± 0%

CCCC(=O)N[C@@H](Cc1c[nH]c2ccccc12)C(=O)N[C@@H](CCC(=O)C=[N+]=[N-])C(=O)OC(C)C [Compound 8a, Isopropyl (S)-2-((S)-2-butyramido-3-(1H-indol-3-yl)propanamido)-6-diazo-5-oxohexanoate]
Gut Stability (% remaining at 60 min) [3]: 12 ± 1%
Liver stability (% remaining at 60 min) [1]: 5 ± 1%

CC(C)CC(=O)N[C@@H](Cc1c[nH]c2ccccc12)C(=O)N[C@@H](CCC(=O)C=[N+]=[N-])C(=O)OC(C)C [Compound 8b, Isopropyl (S)-2-((S)-3-(1H-indol-3-yl)-2-(3-methylbutanamido)propanamido)-6-diazo-5-oxohexanoate]
Gut Stability (% remaining at 60 min) [3]: 6 ± 1%
Liver stability (% remaining at 60 min) [1]: 1 ± 0%

CC(C)OC(=O)[C@H](CCC(=O)C=[N+]=[N-])NC(=O)[C@H](Cc1c[nH]c2ccccc12)NC(=O)C(C)C [Compound 8c, Isopropyl (S)-2-((S)-3-(1H-indol-3-yl)-2-isobutyramidopropanamido)-6-diazo-5-oxohexanoate]
Gut Stability (% remaining at 60 min) [3]: 13 ± 7%
Liver stability (% remaining at 60 min) [1]: 13 ± 0%

CC(C)OC(=O)[C@H](CCC(=O)C=[N+]=[N-])NC(=O)[C@H](Cc1c[nH]c2ccccc12)NC(=O)C(C)(C)C [Compound 8d, Isopropyl (S)-2-((S)-3-(1H-indol-3-yl)-2-pivalamidopropanamido)-6-diazo-5-oxohexanoate]
Gut Stability (% remaining at 60 min) [3]: 9 ± 1%
Liver stability (% remaining at 60 min) [1]: 2 ± 0%

CC(C)OC(=O)[C@H](CCC(=O)C=[N+]=[N-])NC(=O)[C@H](Cc1c[nH]c2ccccc12)NC(=O)C1CC1 [Compound 8e, Isopropyl (S)-2-((S)-2-(cyclopropanecarboxamido)-3-(1H-indol-3-yl)propanamido)-6-diazo-5-oxohexanoate]
Gut Stability (% remaining at 60 min) [3]: 9 ± 0%
Liver stability (% remaining at 60 min) [1]: 7 ± 0%

CC(C)OC(=O)[C@H](CCC(=O)C=[N+]=[N-])NC(=O)[C@H](Cc1c[nH]c2ccccc12)NC(=O)CN(C)C [Compound 8f, Isopropyl (S)-6-diazo-2-((S)-2-(2-(dimethylamino)acetamido)-3-(1H-indol-3-yl)propanamido)-5-oxohexanoate]
Gut Stability (% remaining at 60 min) [3]: 2 ± 0%
Liver stability (% remaining at 60 min) [1]: 2 ± 0%

CCN(CC)CC(=O)N[C@@H](Cc1c[nH]c2ccccc12)C(=O)N[C@@H](CCC(=O)C=[N+]=[N-])C(=O)OC(C)C [Compound 8g, Isopropyl (S)-6-diazo-2-((S)-2-(2-(diethylamino)acetamido)-3-(1H-indol-3-yl)propanamido)-5-oxohexanoate]
Gut Stability (% remaining at 60 min) [3]: 1 ± 0%
Liver stability (% remaining at 60 min) [1]: 1 ± 0%

CC(C)OC(=O)[C@H](CCC(=O)C=[N+]=[N-])NC(=O)[C@H](Cc1c[nH]c2ccccc12)NC(=O)CN1CCOCC1 [Compound 8i, Isopropyl (S)-2-((S)-3-(1H-indol-3-yl)-2-(2-morpholinoacetamido)propanamido)-6-diazo-5-oxohexanoate]
Gut Stability (% remaining at 60 min) [3]: 0 ± 0%
Liver stability (% remaining at 60 min) [1]: 0 ± 0%

CC(C)OC(=O)[C@H](CCC(=O)C=[N+]=[N-])NC(=O)[C@H](Cc1c[nH]c2ccccc12)NC(=O)CN1CCN(C)CC1 [Compound 8j, Isopropyl (S)-2-((S)-3-(1H-indol-3-yl)-2-(2-(4-methylpiperazin-1-yl)acetamido)propanamido)-6-diazo-5-oxohexanoate]
Liver stability (% remaining at 60 min) [1]: 2 ± 0%

CC(C)OC(=O)[C@H](CCC(=O)C=[N+]=[N-])NC(=O)[C@H](Cc1c[nH]c2ccccc12)NC(=O)c1cccnc1 [Compound 8l, Isopropyl (S)-2-((S)-3-(1H-indol-3-yl)-2-(nicotinamido)propanamido)-6-diazo-5-oxohexanoate]
Gut Stability (% remaining at 60 min) [3]: 2 ± 0%
Liver stability (% remaining at 60 min) [1]: 0 ± 0%

CC(C)OC(=O)[C@H](CCC(=O)C=[N+]=[N-])NC(=O)[C@H](Cc1c[nH]c2ccccc12)NC(=O)c1ccncc1 [Compound 8m, Isopropyl (S)-2-((S)-3-(1H-indol-3-yl)-2-(isonicotinamido)propanamido)-6-diazo-5-oxohexanoate]
Liver stability (% remaining at 60 min) [1]: 0 ± 0%

Cn1cc(C[C@H](NC(=O)C(Cl)Cl)C(=O)N[C@@H](CCC(=O)C=[N+]=[N-])C(=O)OC(C)(C)C)c2ccccc21 [Compound 12h, tert-Butyl (S)-6-diazo-2-((S)-2-(2,2-dichloroacetamido)-3-(1-methyl-1H-indol-3-yl)propanamido)-5-oxohexanoate]
Liver stability (% remaining at 60 min) [1]: 50 ± 3%

CC(=O)NCC(=O)N[C@@H](CCC(=O)C=[N+]=[N-])C(=O)OC(C)(C)C [Compound 14a, tert-Butyl (S)-2-(2-acetamidoacetamido)-6-diazo-5-oxohexanoate]
Gut Stability (% remaining at 60 min) [3]: 96 ± 0%
Liver stability (% remaining at 60 min) [1]: 88 ± 1%

CC(=O)N[C@@H](Cc1cccnc1)C(=O)N[C@@H](CCC(=O)C=[N+]=[N-])C(=O)OC(C)(C)C [Compound 17a, tert-Butyl (S)-2-((S)-2-acetamido-3-(pyridin-3-yl)propanamido)-6-diazo-5-oxohexanoate]
Gut Stability (% remaining at 60 min) [3]: 96 ± 1%
Liver stability (% remaining at 60 min) [1]: 103 ± 3%

CC(=O)N[C@@H](Cc1cncn1C)C(=O)N[C@@H](CCC(=O)C=[N+]=[N-])C(=O)OC(C)(C)C [Compound 18a, tert-Butyl (S)-2-((S)-2-acetamido-3-(1-methyl-1H-imidazol-5-yl)propanamido)-6-diazo-5-oxohexanoate]
Gut Stability (% remaining at 60 min) [3]: 93 ± 1%
Liver stability (% remaining at 60 min) [1]: 105 ± 2%

CN(C)CC(=O)N[C@@H](Cc1cncn1C)C(=O)N[C@@H](CCC(=O)C=[N+]=[N-])C(=O)OC(C)(C)C [Compound 18b, tert-Butyl (S)-6-diazo-2-((S)-2-(2-(dimethylamino)acetamido)-3-(1-methyl-1H-imidazol-5-yl)propanamido)-5-oxohexanoate]
Gut Stability (% remaining at 60 min) [3]: 98 ± 2%
Liver stability (% remaining at 60 min) [1]: 100 ± 3%

CN(C)CC(=O)N[C@@H](Cc1cccc(F)c1)C(=O)N[C@@H](CCC(=O)C=[N+]=[N-])C(=O)OC(C)(C)C [Compound 21a, tert-Butyl (S)-6-diazo-2-((S)-2-(2-(dimethylamino)acetamido)-3-(3-fluorophenyl)propanamido)-5-oxohexanoate]
Liver stability (% remaining at 60 min) [1]: 75 ± 4%
Efflux [2]: 46.71

CN(C)CC(=O)N[C@@H](Cc1ccc(F)cc1)C(=O)N[C@@H](CCC(=O)C=[N+]=[N-])C(=O)OC(C)(C)C [Compound 22a, tert-Butyl (S)-6-diazo-2-((S)-2-(2-(dimethylamino)acetamido)-3-(4-fluorophenyl)propanamido)-5-oxohexanoate]
Liver stability (% remaining at 60 min) [1]: 62 ± 1%
Efflux [2]: 52.07

CN(C)CC(=O)N[C@@H](CC(C)(C)C)C(=O)N[C@@H](CCC(=O)C=[N+]=[N-])C(=O)OC(C)(C)C [Compound 24a, tert-Butyl (S)-6-diazo-2-((S)-2-(2-(dimethylamino)acetamido)-4,4-dimethylpentanamido)-5-oxohexanoate]
Liver stability (% remaining at 60 min) [1]: 78 ± 1%

CN(C)[C@@H](Cc1ccccc1)C(=O)N[C@@H](CCC(=O)C=[N+]=[N-])C(=O)OC(C)(C)C [Compound 26a, tert-Butyl (S)-6-diazo-2-((S)-2-(dimethylamino)-3-phenylpropanamido)-5-oxohexanoate]
Liver stability (% remaining at 60 min) [1]: 71 ± 0%

CN(C)CC(=O)NCC(=O)N[C@@H](CCC(=O)C=[N+]=[N-])C(N)=O [Compound 31c, (S)-6-Diazo-2-(2-(2-(dimethylamino)acetamido)acetamido)-5-oxohexanamide]
Liver stability (% remaining at 60 min) [1]: 89 ± 4%

CC(C)C[C@H](NC(=O)CN(C)C)C(=O)N[C@@H](CCC(=O)C=[N+]=[N-])C(N)=O [Compound 31d, (S)-6-Diazo-2-((S)-2-(2-(dimethylamino)acetamido)-4-methylpentanamido)-5-oxohexanamide]
Liver stability (% remaining at 60 min) [1]: 90 ± 1%

CN(C)CC(=O)N[C@@H](Cc1ccccc1)C(=O)N[C@@H](CCC(=O)C=[N+]=[N-])C(N)=O [Compound 31e, (S)-6-Diazo-2-((S)-2-(2-(dimethylamino)acetamido)-3-phenylpropanamido)-5-oxohexanamide]
Liver stability (% remaining at 60 min) [1]: 39 ± 0%

CN(C)CC(=O)N[C@@H](Cc1cn(C)c2ccccc12)C(=O)N[C@@H](CCC(=O)C=[N+]=[N-])C(N)=O [Compound 31f, (S)-6-Diazo-2-((S)-2-(2-(dimethylamino)acetamido)-3-(1-methyl-1H-indol-3-yl)propanamido)-5-oxohexanamide]
Gut Stability (% remaining at 60 min) [3]: 89 ± 2%
Liver stability (% remaining at 60 min) [1]: 49 ± 0%
